# From US12296365B2, “Peroxyformic acid compositions for membrane filtration cleaning” (ECOLAB USA INC., priority 2015, dated 2025)
# Assays:
# [1] = RO membrane compatibility soak, overall conclusion; conditions: 300 ppm, simulated 1 year
# [2] = RO membrane compatibility soak, clean water flux and salt rejection; conditions: Koch HRX; 57 ppm, simulated 3 Years, soak 234 hr, 77 F
# Experimental: In particular, the effects of PFA on reverse osmosis members which contain a polyamide structure in comparison with known control chemicals was tested. Three different membranes were tested including Koch HRX, Hydranautics CPAS and Hydranautics ESPA2+. Membranes were soaked in duplicate, in chemistries according to Table 4.
# Membranes were then conditioned in Ultrasil 110 at a pH of 11 for 90 minutes at 50° C., followed by a rinse in DI water.
# Each of the chemistries, with the exception of PFA was refreshed daily. PFA was refreshed hourly. After the simulated exposure the membranes are rinsed with DI water and placed on the Flat Sheet Membrane skid (Model M20). The membranes were rinsed with DI water for 24 hours at standard UF pressure and temperature. Once 24 hours was completed the membranes were subjected to alkaline conditioning step until solution pH is 11. 15.14 grams of NaCl was added to the recirculating water (2000 ppm NaCl) and the system was allowed to continue circulating. The conductivity of each permeate tube and feed was then measured and recorded and shown as percent rejection. The percent rejection was determined by (conductivity of the feed−conductivity of the permeate)/(conductivity of the feed).
SMILES,flux and salt rejection results versus control (in words) [1],Water Flux (LMH) Peracetic acid [2]
"O=COO [PFA, peroxyformic acid]",comparable results to that of the commercially-available control peroxyacetic acid compositions at 3 years,–
CC(=O)OO [Peracetic acid],–,75.22 LMH
